Results on 4 compounds are retold here after US6620911B1, “Anti-cryptococcal peptides” (Arizona Board of Regents, acting for and on behalf of …, priority 1998, dated 2003).

Converted amounts (≈) assume the structure as drawn.

Experiment [1] relates to Candida albicans. Nature of the experiment: Disk diffusion susceptibility testing. It is filed as cell-based. To be noted: ATCC 90028. As for the experimental part:
(§1) Antimicrobial activity was assayed by disk susceptibility tests according to the NCCLS (National Committee for Clinical Laboratory Standards, Performance Standards for Antimicrobial Disk Susceptibility Tests-Sixth Edition: Approved standard M2-A6, NCCLS, Wayne, Pa., 1997). Inocula were adjusted to a density of 0.10 at 625 nm in SDA broth, and spread on SDA plates. Excess moisture was allowed to absorb for 10 min before applying dried disks containing two-fold dilutions of the drugs. Test plates were incubated at 35° C. (25° C. for C. albidus and C. laurentii), and zones of inhibition recorded after 48 h. The minimum inhibitory concentration (MIC) was defined as the lowest concentration of drug resulting in a clear zone of growth inhibition. Disk susceptibility testing of Staphylococcus aureus, Enterococcus faecalis, Escherichia coli and Neisseria gonorrhoeae was also performed.
(A growth-free zone around the sample is the usual read-out of agar diffusion tests.)

The subject of experiment [2] is Candida glabrata. As to the kind of experiment: Disk diffusion susceptibility testing. It is filed as cell-based. To be noted: ATCC 90030. How it is done: as §1
Experiment [3] concerns Cryptococcus albidus. As to the kind of experiment: Disk diffusion susceptibility testing. Type of experiment: cell-based. Particulars: ATCC 66030. As for the experimental part: as §1
Experiment [4] has as its system Cryptococcus laurentii. Nature of the experiment: Disk diffusion susceptibility testing. Type of experiment: cell-based. To be noted: ATCC 66036. How it is done:
as §1

For experiment [5], the system named is Cryptococcus neoformans. Nature of the experiment: Disk diffusion susceptibility testing. Type of experiment: cell-based. Particulars: ATCC 90112. As for the experimental part:
as §1

Experiment [6] deals with Cryptococcus neoformans. Nature of the experiment: Broth macrodilution assay (MIC, MFC), ATCC strains. It is filed as cell-based. To be noted: C. neoformans #14116. As for the experimental part:
(§2) Dolastatin 10 and modifications were screened against yeasts by the broth macrodilution assay according to the NCCLS (National Committee for Clinical Laboratory Standards, Reference Method for Broth Dilution Antifungal Susceptibility Testing of Yeasts: Approved Standard M27-A, NCCLS, Wayne, Pa., 1997). Yeasts were suspended and diluted as recommended to yield final inocula ranging from 0.5-2.5×10^3 colony forming units (CFU)/ml. Tests were performed in sterile 12×75 mm plastic tubes containing two-fold dilutions of the peptides in 0.165 M morpholinepropanesulfonic acid (MOPS)-buffered RPMI 1640 medium (pH 7.0). One tube was left drug-free for a turbidity control. Tubes were incubated without agitation at 35° C. (25° C. for C. albidus and C. laurentii). MICs were determined after 72 h for Cryptococcus, and after
(§3) 48 h for other yeast genera. The MIC was defined as the lowest concentration of compound that inhibited all visible growth of the test organism.
(§4) Minimum fungicidal concentrations (MFCs) were determined by subculturing 0.1 ml from each tube with no visible growth in the MIC broth macrodilution series onto drug-free SDA plates. The plates were incubated at 35° C. for 48 h for Cryptococcus (25° C. for C. alhidus and C. laurentii), and 35° C. for 24 h for all other yeast and filamentous fungi.

The subject of experiment [7] is clinical isolates of C. neoformans. As to the kind of experiment: Broth macrodilution (MIC, MFC), 19 clinical isolates. It is filed as cell-based, Cryptococcus neoformans.
From the text: Clinical isolates of C. neoformans were obtained from patient cerebrospinal fluid, blood, bone marrow, sputum, bronchial lavage and wound infections at the University of Virginia Medical Center, Strains clinically resistant to fluconazole (See: Jessup, C. J. et al, 1997; Poster #F-88, 37th ICAAC, Toronto, Canada) were provided by the Center for Medical Mycology, Case Western Reserve University. Yeast strains (except for C. albidus and C. laurentii) were maintained by single colony transfer on Sabouraud Dextrose Agar (SDA), pH 5.6 at 35° C. Cryptococcus albidus, C. laurentii and C. uniguttulatus (#66033) were maintained on SDA, pH 6.6 at 25° C., C. uniguttulatus (#34143) and C. ater on Yeast Morphology (YM) agar at 25° C. and filamentous fungi were maintained on Potato Dextrose Agar (PDA) slants at 35° C.
as §2, §3, §4

The test system of experiment [8] is Cryptococcus neoformans #90112. Nature of the experiment: Effect of host factors (pH, human serum) on broth macrodilution MICs and MFCs. It is filed as cell-based. Particulars: acidified RPMI. How it is done:
as §2, §3, §4
Broth macrodilution assays were performed with RPMI prepared at pH 5, pH 6 and pH 7, and in RPMI, with and without 50% normal human serum (Lampire Biological Labs). Cryptococcus neoformans #90112 was used in each case.

Experiment [9] concerns C. neoformans (#90112). Nature of the experiment: Killing kinetics. Particulars: 1x, 4x, 8x MIC, FIG. 2. It is filed as cell-based, Cryptococcus neoformans. As for the experimental part: Overnight cultures of C. neoformans (#90112) in Ph 7.0 MOPS-buffered RPMI 1640 medium were inoculated into the same medium containing multiples of the broth macrodilution MIC of the antifungal peptides, or an equivalent volume of DMSO. Cultures were shaken at 35° C., and aliquots aseptically removed at various times for dilution plating.

For `CCC(C)C(C(CC(=O)N1CCC[C@H]1C(OC)C(C)C(=O)NC(Cc1ccccc1)C(=O)Nc1nnc(-c2ccccc2)s1)OC)N(C)C(=O)[C@@H](NC(=O)[C@H](C(C)C)N(C)C)C(C)C` (stereo partly drawn) [1b], the MIC is over 100 μg/disk in experiment [1]; over 100 μg/disk in [2]; over 100 μg/disk in experiment [3]; over 100 μg/disk in [4]; 3.12-6.25 μg/disk in experiment [5]. For the same compound, the “MFC relative to MIC” value in [6] was “sixteenfold greater than MICs”.

Take `CCC(C)C(C(CC(=O)N1CCC[C@H]1C(OC)C(C)C(=O)NC(Cc1ccccc1)C(=O)Nc1nc(SC)ns1)OC)N(C)C(=O)[C@@H](NC(=O)[C@H](C(C)C)N(C)C)C(C)C` (stereo partly drawn) [1c]: the MIC in experiment [1] was over 100 μg/disk; in experiment [2], over 100 μg/disk; in [5], 1.56-3.12 μg/disk. For the same compound, in [6], the “MFC relative to MIC” value is “sixteenfold greater than MICs”.

For `CCC(C)C(C(CC(=O)N1CCC[C@H]1C(OC)C(C)C(=O)NC(Cc1ccccc1)C(=O)OC)OC)N(C)C(=O)[C@@H](NC(=O)[C@H](C(C)C)N(C)C)C(C)C` (stereo partly drawn) [1d], the MIC in [1] is over 100 μg/disk. In addition, the MIC in experiment [3] is recorded as over 100 μg/disk. This compound yielded an MIC in experiment [4] of over 100 μg/disk. In addition, the MIC in [5] is given as 3.12-6.25 μg/disk. For the same compound, in [7] (19 clinical isolates), the MFC50 was found to be 0.39 µg/mL (≈ 0.513 µM), the MFC90 is 0.78 µg/mL (≈ 1.03 µM), the “MIC50 (MIC at which 50% of the isolates were inhibited)” value turned out to be 0.195 µg/mL and the “MIC90 (MIC at which 90% of the isolates were inhibited)” value was found to be 0.39 µg/mL. In [7] (19 clinical isolates), the “clinical isolate MFCs, range” value was 0.0975 to 6.24 µg/mL; the “share of clinical isolates with MFC/MIC ratio equal to 4” value was 26%; the “share of clinical isolates with MFC/MIC ratio less than or equal to 2” value is on record as “more than 68%”. In experiment [7] (19 clinical isolates (not fluconazole-resistant strains)), the resistant clinical isolates entry was “No resistant clinical isolates were found”. For the same compound, the “recovery: MFCs after the recommended incubation period compared with one week later” value in experiment [7] (clinical isolates) is reported as “no evidence of recovery”. In addition, in experiment [8], the “effect of lowered pH on anticryptococcal activity” value was “least affected by lowered pH”. In [9], the “fungicidal action, reductions in CFUs” value is reported as “most dramatic reductions in CFUs”.

Take `CCC(C)C(C(CC(=O)N1CCC[C@H]1C(OC)C(C)C(=O)NC(CCSC)C(=O)Nc1cnc2ccccc2c1)OC)N(C)C(=O)[C@@H](NC(=O)[C@H](C(C)C)N(C)C)C(C)C` (stereo partly drawn) [1e]: the values for the MIC in [1] and in experiment [5] were over 100 μg/disk and 25-50 μg/disk, respectively.
